Results from patent publication US5328913A, “Minoxidil analogs as inhibitors of cell proliferation and lysyl hydroxylase” (priority 1992, dated 1994).

Experiments:
[1] = tested on: prolyl hydroxylase; experiment: Prolyl hydroxylase activity in extracts of treated human skin fibroblasts (Example 1, tritium-release assay); format: cell-based; conditions: cultured fibroblasts, 72 h, Example 1
Protocol: (§1) Cultures of human skin fibroblasts grown to confluence were incubated for 72 h in medium supplemented with 1% ethanol containing various concentrations of minoxidil or deoxyminoxidil as indicated. Cells were then harvested, and the enzyme activities in extracts of these cells were measured by tritium-release assays (Murad and Pinnell, J. Biol. Chem. 262:11,973 (1987)). The results are expressed as percentages of zero-concentration values.
as §1, with “with 1% acetone containing various concentrations of minoxidil sulfate,” for “deoxyminoxidil”, “tritium release” for “tritium-release”
(§2) Skin fibroblast cultures derived from an apparently normal child (GM05659) were obtained from the Institute for Medical Research, Camden, N.J. The cells were subcultured by trypsinization and used before 25 population doublings. Typically, 4×10^5 cells were seeded onto 100-mm (diameter) plastic petri dishes and allowed to grow in 10 ml of Dulbecco's modified Eagle's minimum essential medium containing 5.6 mM glucose, buffered in pH 7.4 with 24 mM sodium biocarbonate/25 mM Hepes and supplemented with 20% (v/v) calf serum which had been inactivated for 30 min at 56° C. The cells were incubated at 37° C. in a humidified atmosphere of 5% CO2 plus 95% air.
(§3) After a week, the medium was replaced with medium supplemented with 0.5% heat-inactivated diaylzed calf serum, and the incubation was continued for 72 h in the presence of minoxidil or one of its structural analogs. The compounds were dissolved in 95% ethanol, except minoxidil sulfate which was dissolved in acetone; the final solvent concentration was 1% (v/v). During the last 3 h of incubation, cells received 100 μM Na L-ascorbate to ensure complete hydroxylation of the polypeptide precursors of precollagen (Murad et al, J. Invest. Dermatol. 75:404 (1980)).
The medium was then removed and the cells were washed twice with a solution containing 0.14 M NaCl, 5 mM KCl, 0.3 mM Na2 PO4, and 0.4 mM KH2 PO4, adjusted to pH 7.4. […] The trypsinization was terminated with 2 vol of 20% serum-supplemented medium, and the cell number in an aliquot of the suspension was determined using a Coulter counter. […]
(§4) The protein content of cell extracts was determined by a dye-binding technique using Bio-Rad reagent and protein standard (Bradford, Anal. Biochem. 72:248 (1976)).

[2] = tested on: lysyl hydroxylase; experiment: Lysyl hydroxylase activity in fibroblasts treated with minoxidil and its hydroxy derivatives (Example 3); format: cell-based, human; conditions: for Fibroblast Lysyl Hydroxylase Activity: 48 hr
Protocol: Culture of human skin fibroblasts derived from an apparently normal adult were grown to confluent densities in Dulbecco's modified Eagle's medium supplemented with 10% (v/v) fetal calf serum. Thereafter, the medium was replaced with medium supplemented with 0.5% dialyzed fetal calf serum. […] In some experiments, minoxodil was dissolved in 95% (v/v) ethanol; the final concentration of minoxidil was 0.3 mM and that of ethanol was 0.3%. Cultures treated with ethanol only served as the control.
During the last 3 hr of treatment, cultures received 100 μM ascorbic acid. The enzyme activities in extracts of treated cells were measured by tritium-release assays described previously (Murad and Pinnell, J. Biol. Chem. 262:11,973 (1987)).

[3] = tested on: lysyl hydroxylase; experiment: Lysyl hydroxylase activity in extracts of treated human skin fibroblasts (Example 1, tritium-release assay); format: cell-based; conditions: for Lysyl hydroxylase activity (%): 1% ethanol
Protocol: as §1
as §1, with “with 1% acetone containing various concentrations of minoxidil sulfate,” for “deoxyminoxidil”, “tritium release” for “tritium-release”
as §2, §3
The medium was then removed and the cells were washed twice with a solution containing 0.14 M NaCl, 5 mM KCl, 0.3 mM Na2 PO4, and 0.4 mM KH2 PO4, adjusted to pH 7.4. The cells were detached from the plates with a solution containing 0.05% trypsin, 0.54 mM EDTA, 5.5mM glucose, 6.90mM NaHCO3, […], and 5 mM KCl. The trypsinization was terminated with 2 vol of 20% serum-supplemented medium, and the cell number in an aliquot of the suspension was determined using a Coulter counter.
The detached cells were collected by centrifugation at 500g for 6 min at 4° C. washed twice by suspending in phosphate-buffered NaCl/KCl as above, and then centrifuged. The cell pellet was suspended in a medium (1 ml/5×10^6 cells) containing 0.2 M NaCl, 0.1 M glycine, 50 μM dithiothreitol, 20 mM Tris-HCl, buffer (pH 7.5), 0.1% Triton X-100, and 0.01% soybean trypsin inhibitor. The suspension was sonicated for 30 s using a Branson sonifier cell disrupter. The lysate was centrifuged at 27,000g for 1 h at 4° C., and the resulting supernatant was used for prolyl and lysyl hydroxylase assays (Murad and Pinnell, J. Biol. Chem. 262:11, 973 (1987)). The enzyme activities are based on a unit of soluble cell protein.
as §4
Note: Cultures of human skin fibroblasts grown to confluence were
incubated for 72 h in medium supplemented with 1% ethanol containing 1 mM
of the indicated compounds. Cells were then harvested, and the enzyme
activity in extracts of these cells was measured by a tritiumrelease
incubated for 72 h in medium supplemented with 1% ethanol containing 1 nM

[4] = tested on: lysyl hydroxylase; experiment: as above; format: cell-based; conditions: 0.1 mM; dissolved in HCl; final concentration 0.0012 N; 72 h (Table II footnote a)

Nc1cc(N2CCCCC2)nc(N)[n+]1[O-] [Minoxidil]
effect on prolyl hydroxylase activity (in words) [1]: no significant effect on prolyl hydroxylase activity
Fibroblast Lysyl Hydroxylase Activity ([2]; 1 mM): 378 cpm^3 H2 O/mg protein
Lysyl hydroxylase activity, % of control level ([2]; 1 mM, 72 hr): 25%
Lysyl Hydroxylase Activity ([2]; 1 mM, 72 hr (Table VI)): 308 cpm ^3 H2 O/mg protein
Lysyl Hydroxylase Activity ([2]; 1 mM, 72 hr (description table)): 308 cpm^3 H2 O/mg protein
lysyl hydroxylase suppressing activity at 5 mM (in words) ([2]; 5 mM): loses its effect
Fibroblast Lysyl Hydroxylase Activity ([2]; 5 mM): 1321 cpm^3 H2 O/mg protein
Lysyl hydroxylase activity (%) ([3]; 1 nM, 72 h, % of ethanol-treated controls (Table II)): 19-39%
Lysyl hydroxylase activity (%) ([3]; 1 mM, 72 h, % of solvent-treated controls (Table I)): 28%
decrease of the level of lysyl hydroxylase activity ([3]; 72 h, 1 mM (Table I text)): 72%
IC50 ([3]; cultured fibroblasts, 72 h (FIG. 2), read-out: concentration required for 50% inhibition (lysyl hydroxylase)): 118 µM
Lysyl hydroxylase activity (%) [4]: 45%
